Laboratory results reported in patent US9642821B2, “MiR-182 in the diagnosis and treatment of cancer” (Dana-Farber Cancer Institute, Inc., priority 2010, dated 2017).
Entries after “also recorded” stand apart in the source; their conditions may differ.

Key:
[1] = tested on: BRCA1 transcript; test: Immunoprecipitation of HA-AGO1/miRNA complex, qRT-PCR of bound transcripts, MDA-MB231; type: cell-based; details: MDA-MB231, HA-AGO1 IP, normalized to 5S rRNA
Experimental: miR-182 cDNA and miR-17 cDNA was cloned from HL60 cDNA in pcDNA3.1-Puro expression vector (Invitrogen, Carlsbad, Calif.) using the following primers: […]
MDA-MB231 cells (0.5×10^6 cells) were co-transfected with 1 μg of HA-AGO1 (pIRES-FLAG/HA vector, Addgene) and 0.5 μg of expression vector for miR-182/miR-17 or miR-scr using Lipofectamine 2000. After 2 days cells were harvested using 400 μl lysis buffer (100 mM KCl, 5 mM MgCl2, 10 mM Hepes, pH 7.0, 0.5% Nonidet P-40) containing freshly added RNase inhibitor, RNaseOUT (Invitrogen, Carlsbad, Calif.) and Protease Inhibitor Cocktail (Roche, Basel, Switzerland). After centrifugation, a 50 μl aliquot of supernatant was taken as the input for subsequent RNA extraction. The remaining supernatant was gently shaken with HA-beads (HA-probe Santa Cruz sc-7392) for 4 h at 4° C. in spin columns (Pierce Spin Columns-Screw Cap). The columns were drained, washed and the retained beads were treated with 5 U DNaseI in NT2 buffer (50 mM Tris, pH7.4, 150 mM NaCl, 1 mM MgCl2, 0.05% Nonidet P-40) for 10 minutes at 37° C., washed with NT2 buffer and then treated with Proteinase K in NT2 buffer plus 1% SDS for 30 minutes at 55° C. […] RNA was reverse transcribed (see RNA isolation) and analyzed with qPCR for enrichment of mRNA of miR-182/miR-17 predicted targets.

[2] = tested on: MDA-MB231 cells; test: Clonogenic cell survival assay with PARP inhibitors, MDA-MB231; type: cell-based; details: MDA-MB231, 14 days, vs control mimic
Experimental: Hela cells (0.35×10^6 cells/well), MDA-MB231 cells (0.4×10^6 cells/well), 21NT cells (0.5×10^6) were seeded overnight and transfected with 10 nM of miRNA mimics or antagomirs (Ambion, Austin, Tex.) using Lipofectamine 2000. In rescue experiments, miR-182 or control mimics were co-transfected with 1 μg/ml BRCA1 (pcDNA3.1 vector). After 2 days, 1000 cells in 4 ml DMEM media (10% FBS v/v) were seeded on 6 cm tissue culture dishes in four replicates and allowed to attach overnight before treatment. PARP inhibitors (4-amino-1,8-naphthalimide (Sigma, St. Louis, Mo.) or ABT-888 (ChemieTek, Indianapolis, Ind.) in DMSO) were added to the growth media at indicated concentrations. Irradiated cells as well as cells in the presence of PARP inhibitor were allowed to form colonies for 14 days. For evaluation, formed colonies were stained with crystal violet and surviving colonies containing >50 cells were counted. Plating efficiency was 30-50%.

**Q.** For “miR-182: microRNA with sequence 5′ UUUGGCAAUGGUAGAACUCACACU 3′ (SEQ ID NO:1); given as mimic (Ambion) or expression vector (UUUGGCAAUGGUAGAACUCACACU; listed as RNA, chemistry not given here; listed as Homo sapiens)”, which “association of miRNA/AGO1 complex with BRCA1 transcript” value [1] is on record?
**A.** associates selectively; also recorded: significantly enriched

**Q.** What about the “sensitivity to PARP1 inhibitor ABT-888 (clonogenic survival)” value [2] of the same substance?
**A.** sensitize MDA-MB231 cells to PARP1 inhibition

**Q.** What about the “sensitivity to PARP1 inhibitor ANI (clonogenic survival)” value [2] of the same substance?
**A.** sensitize MDA-MB231 cells to PARP1 inhibition

**Q.** What about the “sensitivity to PARP1 inhibitor ABT-888 (clonogenic survival)” value ([2]; listed as 182 mimic) of the same substance?
**A.** impacts sensitivity to PARP1 inhibitor ABT-888

**Q.** What about the “sensitivity to PARP1 inhibitor ANI (clonogenic survival)” value ([2]; listed as miR-182 mimic) of the same substance?
**A.** significantly enhanced sensitivity to ANI
